Laboratory results taken from PubChem BioAssay (NCI).
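A five-concentration, 48-hour dose response in 96-well plates underlies each endpoint, interpolated linearly between surrounding concentrations. The concentration for 50% growth inhibition is given as GI50. TGI: total growth inhibition.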

Assays:
Assay in all cases: NCI tumour cell line growth inhibition, 48 h
SN12C renal = tested on: SN12C renal
NCI-H522 lung = tested on: NCI-H522 lung
PC-3 prostate = tested on: PC-3 prostate
SK-MEL-2 melanoma = tested on: SK-MEL-2 melanoma
RXF 393 renal = tested on: RXF 393 renal
SK-MEL-5 melanoma = tested on: SK-MEL-5 melanoma
MALME-3M melanoma = tested on: MALME-3M melanoma
KM12 colon = tested on: KM12 colon
NCI-H23 lung = tested on: NCI-H23 lung
M14 melanoma = tested on: M14 melanoma
SNB-19 CNS = tested on: SNB-19 CNS
SK-OV-3 ovarian = tested on: SK-OV-3 ovarian
SF-295 CNS = tested on: SF-295 CNS
NCI/ADR-RES ovarian = tested on: NCI/ADR-RES ovarian
MOLT-4 leukemia = tested on: MOLT-4 leukemia
A549 NSCLC = tested on: A549 NSCLC
HCC-2998 colon = tested on: HCC-2998 colon
ACHN renal = tested on: ACHN renal
OVCAR-8 ovarian = tested on: OVCAR-8 ovarian
HS 578T breast = tested on: HS 578T breast
HCT-116 colon = tested on: HCT-116 colon
MCF7 breast = tested on: MCF7 breast
HT29 colon = tested on: HT29 colon
HCT-15 colon = tested on: HCT-15 colon
BT-549 breast = tested on: BT-549 breast
TK-10 renal = tested on: TK-10 renal
NCI-H460 lung = tested on: NCI-H460 lung
K-562 leukemia = tested on: K-562 leukemia
MDA-N = tested on: MDA-N
SK-MEL-28 melanoma = tested on: SK-MEL-28 melanoma
UACC-62 melanoma = tested on: UACC-62 melanoma
T-47D breast = tested on: T-47D breast
U251 CNS = tested on: U251 CNS
IGROV1 ovarian = tested on: IGROV1 ovarian
UACC-257 melanoma = tested on: UACC-257 melanoma
UO-31 renal = tested on: UO-31 renal
COLO 205 colon = tested on: COLO 205 colon
NCI-H226 lung = tested on: NCI-H226 lung
SW-620 colon = tested on: SW-620 colon
RPMI-8226 leukemia = tested on: RPMI-8226 leukemia
EKVX NSCLC = tested on: EKVX NSCLC
OVCAR-3 ovarian = tested on: OVCAR-3 ovarian
A498 renal = tested on: A498 renal
MDA-MB-435 = tested on: MDA-MB-435
LOX IMVI melanoma = tested on: LOX IMVI melanoma
SF-539 CNS = tested on: SF-539 CNS
786-0 renal = tested on: 786-0 renal
HL-60(TB) leukemia = tested on: HL-60(TB) leukemia
DU-145 prostate = tested on: DU-145 prostate
SNB-75 CNS = tested on: SNB-75 CNS
HOP-92 NSCLC = tested on: HOP-92 NSCLC
OVCAR-4 ovarian = tested on: OVCAR-4 ovarian
OVCAR-5 ovarian = tested on: OVCAR-5 ovarian
CCRF-CEM leukemia = tested on: CCRF-CEM leukemia
CAKI-1 renal = tested on: CAKI-1 renal
MDA-MB-231 breast = tested on: MDA-MB-231 breast
SF-268 CNS = tested on: SF-268 CNS
HOP-62 NSCLC = tested on: HOP-62 NSCLC

COC(=O)Cc1cc2c(cc1C(=O)c1ccc(N)cc1)OCO2
TGI (SN12C renal): > 100 µM | TGI (NCI-H522 lung): 1.01 µM | TGI (PC-3 prostate): > 27.2 µM | TGI (SK-MEL-2 melanoma): 5.36 µM | TGI (RXF 393 renal): > 23.9 µM | TGI (SK-MEL-5 melanoma): 4.49 µM | TGI (MALME-3M melanoma): > 100 µM | TGI (KM12 colon): > 100 µM | TGI (NCI-H23 lung): > 100 µM | TGI (M14 melanoma): > 100 µM | TGI (SNB-19 CNS): > 82.8 µM | TGI (SK-OV-3 ovarian): > 29.2 µM | TGI (SF-295 CNS): 5.33 µM | TGI (NCI/ADR-RES ovarian): 15.3 µM | TGI (MOLT-4 leukemia): 33.8 µM | TGI (A549 NSCLC): > 77.8 µM | TGI (HCC-2998 colon): 3.58 µM | TGI (ACHN renal): > 100 µM | TGI (OVCAR-8 ovarian): > 34.5 µM | TGI (HS 578T breast): > 25.4 µM | TGI (HCT-116 colon): > 45.9 µM | TGI (MCF7 breast): > 100 µM | TGI (HT29 colon): 3.99 µM | TGI (HCT-15 colon): > 37.7 µM | TGI (BT-549 breast): > 20.3 µM | TGI (TK-10 renal): > 100 µM | TGI (NCI-H460 lung): > 100 µM | TGI (K-562 leukemia): > 100 µM | TGI (MDA-N): 1.43 µM | TGI (SK-MEL-28 melanoma): > 100 µM | TGI (UACC-62 melanoma): > 55 µM | TGI (T-47D breast): > 100 µM | TGI (U251 CNS): > 100 µM | TGI (IGROV1 ovarian): 13 µM | TGI (UACC-257 melanoma): > 100 µM | TGI (UO-31 renal): > 100 µM | TGI (COLO 205 colon): 10 µM | TGI (NCI-H226 lung): > 100 µM | TGI (SW-620 colon): > 100 µM | TGI (RPMI-8226 leukemia): 6.08 µM | TGI (EKVX NSCLC): > 100 µM | TGI (OVCAR-3 ovarian): 6.99 µM | TGI (A498 renal): > 27.4 µM | TGI (MDA-MB-435): 0.667 µM | TGI (LOX IMVI melanoma): > 100 µM | TGI (SF-539 CNS): > 27.2 µM | TGI (786-0 renal): > 100 µM | TGI (HL-60(TB) leukemia): > 26.2 µM | TGI (DU-145 prostate): > 39.1 µM | TGI (SNB-75 CNS): 5.84 µM | TGI (HOP-92 NSCLC): 61 µM | TGI (OVCAR-4 ovarian): > 100 µM | TGI (OVCAR-5 ovarian): 83.3 µM | TGI (CCRF-CEM leukemia): 8 µM | TGI (CAKI-1 renal): > 100 µM | TGI (MDA-MB-231 breast): > 30.9 µM | TGI (SF-268 CNS): > 30.7 µM | TGI (HOP-62 NSCLC): > 100 µM

O=C(c1ccc(Cl)c(Cl)c1)N1CCN(C(=O)c2ccc(Cl)c(Cl)c2)C1=S
GI50 (SN12C renal): 18.3 µM | TGI (SN12C renal): 43.9 µM | GI50 (NCI-H522 lung): 6.14 µM | TGI (NCI-H522 lung): 25 µM | GI50 (PC-3 prostate): 16.7 µM | TGI (PC-3 prostate): 31.7 µM | GI50 (SK-MEL-2 melanoma): 18.4 µM | TGI (SK-MEL-2 melanoma): 33.9 µM | GI50 (RXF 393 renal): 17.8 µM | TGI (RXF 393 renal): 35.8 µM | GI50 (MALME-3M melanoma): 14.9 µM | TGI (MALME-3M melanoma): 30.6 µM | GI50 (KM12 colon): 16.1 µM | TGI (KM12 colon): 33.1 µM | GI50 (NCI-H23 lung): 22 µM | TGI (NCI-H23 lung): 43 µM | GI50 (M14 melanoma): 19.6 µM | TGI (M14 melanoma): 37.9 µM | GI50 (SNB-19 CNS): 21.4 µM | TGI (SNB-19 CNS): 40.7 µM | GI50 (SK-OV-3 ovarian): 18.2 µM | TGI (SK-OV-3 ovarian): 33.9 µM | GI50 (SF-295 CNS): 18.5 µM | TGI (SF-295 CNS): 39.7 µM | GI50 (NCI/ADR-RES ovarian): 34.4 µM | TGI (NCI/ADR-RES ovarian): > 100 µM | GI50 (MOLT-4 leukemia): 15.7 µM | TGI (MOLT-4 leukemia): 36.3 µM | GI50 (A549 NSCLC): 27.8 µM | TGI (A549 NSCLC): 68.9 µM | GI50 (HCC-2998 colon): 19.9 µM | TGI (HCC-2998 colon): 42.9 µM | GI50 (ACHN renal): 19.2 µM | TGI (ACHN renal): 34.4 µM | GI50 (OVCAR-8 ovarian): 19 µM | TGI (OVCAR-8 ovarian): 34.1 µM | GI50 (HS 578T breast): 29.1 µM | TGI (HS 578T breast): > 100 µM | GI50 (HCT-116 colon): 18.1 µM | TGI (HCT-116 colon): 32.8 µM | GI50 (MCF7 breast): 5.57 µM | TGI (MCF7 breast): 36.4 µM | GI50 (HT29 colon): 24.2 µM | TGI (HT29 colon): 53 µM | GI50 (HCT-15 colon): 19.6 µM | TGI (HCT-15 colon): 43.7 µM | GI50 (BT-549 breast): 23.6 µM | TGI (BT-549 breast): 48 µM | GI50 (TK-10 renal): 18.5 µM | TGI (TK-10 renal): 36.5 µM | GI50 (NCI-H460 lung): 22 µM | TGI (NCI-H460 lung): 49.4 µM | GI50 (K-562 leukemia): 16.3 µM | TGI (K-562 leukemia): 60 µM | GI50 (MDA-N): 18.3 µM | TGI (MDA-N): 38.4 µM | GI50 (SK-MEL-28 melanoma): 30.6 µM | TGI (SK-MEL-28 melanoma): 69.8 µM | GI50 (UACC-62 melanoma): 18.1 µM | TGI (UACC-62 melanoma): 34.4 µM | GI50 (T-47D breast): 17.5 µM | TGI (T-47D breast): 73.6 µM | GI50 (U251 CNS): 16.4 µM | TGI (U251 CNS): 29.9 µM | GI50 (IGROV1 ovarian): 19.7 µM | TGI (IGROV1 ovarian): 36.3 µM | GI50 (UACC-257 melanoma): 17.3 µM | TGI (UACC-257 melanoma): 35.6 µM | GI50 (COLO 205 colon): 17.8 µM | TGI (COLO 205 colon): 33.6 µM | GI50 (NCI-H226 lung): 19 µM | TGI (NCI-H226 lung): 37.4 µM | GI50 (SW-620 colon): 21.3 µM | TGI (SW-620 colon): 52.1 µM | TGI (RPMI-8226 leukemia): 5.6 µM | GI50 (EKVX NSCLC): 20.8 µM | TGI (EKVX NSCLC): 38.4 µM | GI50 (OVCAR-3 ovarian): 17.1 µM | TGI (OVCAR-3 ovarian): 35.2 µM | GI50 (A498 renal): 20.2 µM | TGI (A498 renal): 36 µM | GI50 (MDA-MB-435): 15.4 µM | TGI (MDA-MB-435): 31.3 µM | GI50 (LOX IMVI melanoma): 7.63 µM | TGI (LOX IMVI melanoma): 24.2 µM | GI50 (SF-539 CNS): 15.1 µM | TGI (SF-539 CNS): 29.9 µM | GI50 (786-0 renal): 7.16 µM | TGI (786-0 renal): 20.5 µM | GI50 (HL-60(TB) leukemia): 12.7 µM | TGI (HL-60(TB) leukemia): 31.3 µM | GI50 (DU-145 prostate): 14.7 µM | TGI (DU-145 prostate): 29 µM | GI50 (SNB-75 CNS): 18.9 µM | TGI (SNB-75 CNS): 36.4 µM | GI50 (HOP-92 NSCLC): 20 µM | TGI (HOP-92 NSCLC): 34.2 µM | GI50 (OVCAR-4 ovarian): 16.8 µM | TGI (OVCAR-4 ovarian): 31.4 µM | GI50 (OVCAR-5 ovarian): 24.3 µM | TGI (OVCAR-5 ovarian): 51.3 µM | GI50 (CCRF-CEM leukemia): 4.47 µM | TGI (CCRF-CEM leukemia): 18.7 µM | GI50 (CAKI-1 renal): 14 µM | TGI (CAKI-1 renal): 27.1 µM | GI50 (MDA-MB-231 breast): 18.8 µM | TGI (MDA-MB-231 breast): 33.3 µM | GI50 (SF-268 CNS): 16.8 µM | TGI (SF-268 CNS): 47.9 µM | GI50 (HOP-62 NSCLC): 17.6 µM | TGI (HOP-62 NSCLC): 42.8 µM
